From US8722671B2, “Isoquinoline derivatives” (Sanofi, priority 2005, dated 2014)

The molecules below were run against T1, ROCKII or ROKα (Homo sapiens, UniProt O75116) (assay: Determination of Rho kinase inhibition (33P-ATP Streptavidin Flash Plate assay)). Conditions: ATP 40 μM, activity denoted as pIC50 class.
T1 construct: purchased Upstate 14-451
Assay type: biochemical
Protocol: Determination of Rho Kinase Inhibition
To measure Rho-kinase inhibition, IC50 values were determined according to the following protocol:
Buffer: 25 mM Tris pH7.5; 0.02% BSA; 5% Glycerol; 0.008% Triton X100; 2% DMSO, 1 mM DTT; 1 mM MgCl2; 0.5 μCi/well γ^33P ATP
Enzyme: ROCKII or ROKα) (Upstate, Catalog #14-451 Lot #24880U) 0.1 ng/μl
Final concentration of ATP in reaction mixture 40 μM
Biotinylated substrate, diluted to 0.25 μM with buffer described above (without ATP)
• 1. 10 μl Tris buffer (±Inhibitor) • 2. Add 30 μl of enzyme solution • 3. Start the reaction with 30 μL of mix substrate/ATP/ATP33 • 4. Incubate for 20 min at room temperature • 5. Stop reaction with 30 μL of 50 mM EDTA • 6. Transfer 50 μL of stopped solution to Streptavidin Flash Plate plus, Perkin Elmer, SMP 103A • 7. Incubate for 30 min at RT • 8. Wash 4 times with 300 μl of PBS/0.1% Tween 20 • 9. Radioactivity in the well was determined

T1 sequence (O75116 11-552 limits assumed): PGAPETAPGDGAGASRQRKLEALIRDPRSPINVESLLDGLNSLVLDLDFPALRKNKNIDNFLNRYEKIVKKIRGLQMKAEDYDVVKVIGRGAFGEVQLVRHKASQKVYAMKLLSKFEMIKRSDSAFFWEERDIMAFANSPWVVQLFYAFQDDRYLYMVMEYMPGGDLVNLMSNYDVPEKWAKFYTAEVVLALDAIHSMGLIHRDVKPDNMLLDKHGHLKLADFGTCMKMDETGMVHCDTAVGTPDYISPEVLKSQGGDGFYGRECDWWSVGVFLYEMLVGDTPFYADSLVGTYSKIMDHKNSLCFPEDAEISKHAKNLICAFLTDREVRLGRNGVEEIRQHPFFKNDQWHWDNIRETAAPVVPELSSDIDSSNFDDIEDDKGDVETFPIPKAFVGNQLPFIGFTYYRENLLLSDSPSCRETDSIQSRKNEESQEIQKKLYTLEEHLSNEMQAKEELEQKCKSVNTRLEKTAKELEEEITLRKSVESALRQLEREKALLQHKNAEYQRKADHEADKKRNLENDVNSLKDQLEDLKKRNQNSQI

| SMILES | IC50 |
| --- | --- |
| Cl.c1cc2c(cc1Nc1cc3cc(OC4CCNCC4)ccc3cn1)OCO2 [Compound 261] | ++++ (6.0≦pIC50) |
| COc1cccc(Nc2cc3c(C4CC4)c(OC4CCNCC4)ccc3cn2)c1.Cl [Compound 265] | +++ (5.0≦pIC50<6.0) |
| CN1CCCC(COc2ccc3cnccc3c2Br)C1.O=C(O)C(F)(F)F (stereo not drawn) [Compound 138] | ++++ (6.0≦pIC50) |
| O=C(O)C(F)(F)F.c1ccc2oc(-c3c(OC4CCNCC4)ccc4cnccc34)cc2c1 [Compound 59] | ++++ (6.0≦pIC50) |
| O=C(O)C(F)(F)F.c1cc2cc(OC3CCCNC3)ccc2cn1 (stereo not drawn) [Compound 145] | +++ (5.0≦pIC50<6.0) |
| COc1ccc2cc(CN3CCC(Oc4ccc5cnccc5c4)CC3)ccc2c1.O=C(O)C(F)(F)F [Compound 120] | ++++ (6.0≦pIC50) |
| COc1cc(Nc2cc3cc(OC4CCNCC4)ccc3cn2)cc(OC)c1OC [Compound 228] | ++++ (6.0≦pIC50) |
| FC(F)(F)CCN1CCC(Oc2ccc3cnccc3c2)CC1.O=C(O)C(F)(F)F [Compound 111] | +++ (5.0≦pIC50<6.0) |
| O=C(O)C(F)(F)F.c1ccc(C(CN2CCC(Oc3ccc4cnccc4c3)CC2)c2ccccc2)cc1 [Compound 100] | +++ (5.0≦pIC50<6.0) |

More lines, now with the values ahead:

| IC50 | SMILES |
| --- | --- |
| +++ (5.0≦pIC50<6.0) | OCc1cccc(-c2c(OC3CCNCC3)ccc3cnccc23)c1 [Compound 67] |
| ++++ (6.0≦pIC50) | COc1ccc(-c2c(OC3CCNCC3)ccc3cnccc23)cc1N [Compound 72] |
| ++++ (6.0≦pIC50) | Cl.Clc1cc(OC2CCNCC2)cc2ccncc12 [Compound 269, 8-Chloro-6-(Piperidin-4-yloxy)-isoquinoline hydrochloride] |
| ++++ (6.0≦pIC50) | Cl.Ic1c(OC2CCNCC2)ccc2cnccc12 [Compound 44] |
| +++ (5.0≦pIC50<6.0) | CCc1cncc2ccc(OC3CCNCC3)cc12.Cl [Compound 266, 4-Ethyl-6-(piperidin-4-yloxy)-isoquinoline] |
| ++++ (6.0≦pIC50) | Cc1cc(OC2CCNCC2)c(C)c2ccncc12.Cl [Compound 133] |
| ++++ (6.0≦pIC50) | Cl.Clc1cncc2ccc(OC3CCNCC3)cc12 [Compound 156, 4-Chloro-6-(piperidin-4-yloxy)-isoquinoline hydrochloride] |
| +++ (5.0≦pIC50<6.0) | Cc1c(OC2CCNCC2)cc2ccncc2c1C.Cl [Compound 134] |
| ++++ (6.0≦pIC50) | Clc1cc2cnccc2c(Cl)c1OC1CCNCC1 [Compound 378, 5,7-Dichloro-6-(piperidin-4-yloxy)-isoquinoline] |
| ++++ (6.0≦pIC50) | Brc1c(OC2CCNCC2)ccc2cnccc12.Cl [Compound 41] |
| ++++ (6.0≦pIC50) | c1ccc(-c2cc3cnccc3cc2OC2CCNCC2)cc1 [Compound 81] |
| +++ (5.0≦pIC50<6.0) | c1ccc(Cc2c(OC3CCNCC3)ccc3cnccc23)cc1 [Compound 29, 5-Benzyl-6-(piperidin-4-yloxy)-isoquinoline] |
